Results reported in patent publication US11696581B2, “Monoterpenoid/phenylpropanoid-containing compounds and methods of their making and use as seed treatments” (KITTRICH CORPORATION, priority 2016, dated 2023).

Columns and labels:
Type in all cases: in vivo
corn seeds = assay: Germination assays of coated corn seeds; conditions: 3 days dark then one week in soil, root mats and radicals emerged or not
Description: Germination of seeds was performed by carefully applying 500 μL of de-ionized water in order to fully surround each seed with water at the bottom of the cup. Parafilm wax was placed over the top of the cup to maintain moisture and encourage germination of the seeds. Cups containing moistened seeds were allowed to germinate in the dark for 3 days before 30 g of soil was introduced into the cup, with 4.5 mL of water added to the soil to moisten it. Seeds were allowed to grow for one week before removing the soil and assessing total germination. Germination was quantified as whether or not root mats and radicals emerged from the moistened seed casing. The total number of seeds in each cup (out of three seeds) that germinated were quantified. Over 4 replicates of this experiment were performed for each monoterpenoid derivative treatment screened.

[1] = system: Western corn rootworm larvae; assay: Western corn rootworm survival assay (treated corn seeds); conditions: corn seeds coated 1% weight/weight; 6 neonatal larvae per cup; 7 days at 28° C.; α=0.05; control survival 67.8±3.7%
Description: Solo® condiment cups with lids. Germination of seeds was performed by carefully applying 500 μL of de-ionized water in order to fully surround each seed with water at the bottom of the cup. Parafilm® wax was placed over the top of the cup to maintain moisture and encourage germination of the seeds. Cups containing moistened seeds were allowed to germinate in the dark for 3 days before the start of the assay. Six live neonatal Western corn rootworm larvae were carefully applied to the roots of germinated corn seeds for each cup. After applying the larvae to the roots, 30 g of dried soil, sieved with a 600-μm Fisher Brand sieve and moistened with 4.5 mL of water, was applied evenly throughout the cup. Organza was placed over the top of the cup and fastened in place with a cup lid. Cups were incubated at 28° C. in 40-50% humidity for 7 days. Surviving corn rootworm were enumerated and the average percentage survival was reported. A minimum of 10 replicates were performed for each treatment.

[2] = system: Western corn rootworm larvae; assay: Western corn rootworm repellency assay (treated vs untreated corn sides); conditions: one week; for larval mortality (missing larvae declared dead) in repellency arena: one side treated seeds, control 20% declared dead; for repellency: larvae isolated from untreated end vs treated end: choice between treated and untreated corn, 30 larvae, control 52% treated side / 48% untreated side
Description: Three treated seeds were germinated on one side of a plastic Genpack deli container (32 oz.) 5 days prior to infesting the container with western corn rootworm larvae. On the other side, three untreated seeds were germinated at the same time diagonally across from the treated seeds. Containers were infested by placing 30 rootworm into the middle of the container, on the top of the soil. Rootworm were allowed to choose which side to feed on primarily. Containers infested with western corn rootworm were incubated at 28° C. and 40±10% relative humidity for one week. After one week, containers were removed and soil was mechanically sifted through to quantify the number of living larvae. The total number of larvae present on the treated side vs. the untreated side were averaged from a minimum of three replicates. If repellency was observed (i.e. more rootworm found on the untreated side than the treated side), the experiment was repeated to confirm repellency in subsequent experiments. The number of rootworm missing were also enumerated. Data was averaged from a minimum of three replicates and over 90 larvae used in the total repellency assessment for each compound.

O=C(O)CCC(=O)OC/C=C/c1ccccc1 [cinnamyl hydrogen succinate]
inhibition of germination of corn seedlings (corn seeds): most significant inhibitors of germination of corn seedlings | larval survival compared to the control [1]: significantly lower larval survival than the control

CCCCCCCCCCCCCC(=O)OCC=Cc1ccccc1 [cinnamyl myristate]
larval survival compared to the control [1]: significantly lower larval survival than the control | larval mortality (missing larvae declared dead) in repellency arena [2]: higher larval mortality that was statistically significant compared to the control

CC(C)=CCCC(C)CCOC(=O)CC(C)CCC=C(C)C (stereo not shown) [citronellyl citronellate]
larval survival compared to the control [1]: significantly lower larval survival than the control

CC(C)=CCCC(C)CC(=O)OCCOC(=O)CC(C)CCC=C(C)C (stereo not shown) [ethylene dicitronellate, Ethylene dicitronellate]
larval survival compared to the control [1]: significantly lower larval survival than the control | larval mortality (missing larvae declared dead) in repellency arena [2]: higher larval mortality that was statistically significant compared to the control

C=CCc1ccc(OC(=O)CC(C)CCC=C(C)C)c(OC)c1 (stereo not shown) [eugenyl citronellate]
inhibition of germination of corn seedlings (corn seeds): most significant inhibitors of germination of corn seedlings

O=C(/C=C/c1ccccc1)OC1C(OC(=O)/C=C/c2ccccc2)C(OC(=O)/C=C/c2ccccc2)C(OC(=O)/C=C/c2ccccc2)C(OC(=O)/C=C/c2ccccc2)C1OC(=O)/C=C/c1ccccc1 (stereo not shown) [hexacinnamoyl inositol, hexacinnamoylinositol]
repellency: larvae isolated from untreated end vs treated end [2]: higher number of larvae to be isolated from the untreated end compared to the treated end

CC(C)=CCCC(C)CC(=O)OC1C(OC(=O)CC(C)CCC=C(C)C)C(OC(=O)CC(C)CCC=C(C)C)C(OC(=O)CC(C)CCC=C(C)C)C(OC(=O)CC(C)CCC=C(C)C)C1OC(=O)CC(C)CCC=C(C)C (stereo not shown) [inositol hexacitronellate, hexacitronelloylinositol]
inhibition of germination of corn seedlings (corn seeds): most significant inhibitors of germination of corn seedlings | larval survival compared to the control [1]: significantly lower larval survival than the control | larvae associated with the treated corn side ([2]; average, choice arena, control approximately 52%): 22% | repellency: larvae isolated from untreated end vs treated end [2]: higher number of larvae to be isolated from the untreated end compared to the treated end

Cc1ccc(C(C)C)c(OC(=O)/C=C/c2ccccc2)c1 [thymyl cinnamate]
larval survival compared to the control [1]: significantly lower larval survival than the control | repellency: larvae isolated from untreated end vs treated end [2]: higher number of larvae to be isolated from the untreated end compared to the treated end

Cc1ccc(C(C)C)c(OC(=O)CCC(=O)O)c1 [thymyl hydrogen succinate]
larval survival compared to the control [1]: significantly lower larval survival than the control

eugenyl succinate
larval survival compared to the control [1]: significantly lower larval survival than the control | repellency: larvae isolated from untreated end vs treated end [2]: higher number of larvae to be isolated from the untreated end compared to the treated end | larval mortality (missing larvae declared dead) in repellency arena [2]: higher larval mortality that was statistically significant compared to the control
